Measurements as given in US20230085307A1, “PYRIDAZINONE COMPOUND AND HERBICIDE” (NISSAN CHEMICAL CORPORATION, priority 2019, published 2023).

How the values were obtained:
Chinese sprangletop = assay: Test Example 3: herbicidal effect by foliage application, Wagner pot (Table 18, symbol D); assay type: in vivo, chinese sprangletop (Leptochloa chinensis); conditions: 320 g/ha
Procedure, shortened: (§1)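 Plants were sown in alluvial soil held under 0.1–0.5 cm standing water and grown 14 days in a greenhouse at 25–30 °C. An emulsifiable formulation, water-diluted to the set dose, was then sprayed onto the foliage, and effects were scored three weeks later using previously defined criteria.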

late watergrass [1] = assay: Test Example 1: herbicidal activity, application before weed generation under submerged conditions (Table 16, symbol A); assay type: in vivo, late watergrass (Echinochloa oryzicola); conditions: 320 g/ha applied herbicide
Procedure, shortened: (§2)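 Submerged Wagner pots (alluvial soil, 4 cm water) sown with weed seeds and planted with 2.5-leaf rice seedlings; emulsifiable concentrate diluted in water applied to water surface on sowing day. Held in greenhouse at 25-30 °C; injury scored 0-5 by herbicidal rate after three weeks.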

Japanese bulrush [2] = assay: Test Example 2: herbicidal activity, application during weed generation under submerged conditions (Table 17, symbol B); assay type: in vivo, Japanese bulrush (Schoenoplectus juncoides); conditions: AAH 320 g/ha; application during weed generation, submerged conditions
Procedure, shortened: (§3)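 Alluvial soil in Wagner pots was flooded to 4 cm depth and sown with the three weeds together; pots were kept in a greenhouse at 25° C. to 30° C. At the one to two leaf stage, an emulsion formulation diluted in water to a set rate went onto the water surface; scored three weeks later.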

late watergrass [3] = assay: Test Example 2: herbicidal activity, application during weed generation under submerged conditions (Table 17, symbol A); assay type: in vivo, late watergrass (Echinochloa oryzicola); conditions: AAH 320 g/ha; application during weed generation, submerged conditions
Procedure, shortened: as §3

Japanese bulrush [4] = assay: Test Example 1: herbicidal activity, application before weed generation under submerged conditions (Table 16, symbol B); assay type: in vivo, Japanese bulrush (Schoenoplectus juncoides); conditions: 320 g/ha applied herbicide
Procedure, shortened: as §2

oval-leafed pondweed [5] = assay: Test Example 1: herbicidal activity, application before weed generation under submerged conditions (Table 16, symbol C); assay type: in vivo, oval-leafed pondweed (Monochoria vaginalis); conditions: 320 g/ha applied herbicide
Procedure, shortened: as §2

barnyard grass = assay: Test Example 3: herbicidal effect by foliage application, Wagner pot (Table 18, symbol H); assay type: in vivo, barnyard grass (Echinochloa crus-galli); conditions: 320 g/ha
Procedure, shortened: as §1

oval-leafed pondweed [6] = assay: Test Example 2: herbicidal activity, application during weed generation under submerged conditions (Table 17, symbol C); assay type: in vivo, oval-leafed pondweed (Monochoria vaginalis); conditions: AAH 320 g/ha; application during weed generation, submerged conditions
Procedure, shortened: as §3

rice flat sedge = assay: Test Example 3: herbicidal effect by foliage application, Wagner pot (Table 18, symbol E); assay type: in vivo, rice flat sedge (Cyperus iria); conditions: 320 g/ha
Procedure, shortened: as §1

In the case of C=C(C)CCOc1ccc(-c2sc3ccccc3c2-c2c(O)c(C)nn(C)c2=O)cc1 [1-210], the “herbicidal effect on D (Chinese sprangletop), rating 0-5” value (Chinese sprangletop) is reported as 5 (Herbicidal rate of 90% or more (almost completely withered)), the “Herbicidal effect on A: late watergrass (grade 0-5)” value (late watergrass [1]) is reported as 5 (Herbicidal rate of 90% or more (almost completely withered)) and the “herbicidal effect rating, B: Japanese bulrush” value (Japanese bulrush [2]) is reported as 3 (Herbicidal rate of 40% or more and less than 70%). The “herbicidal effect rating, A: late watergrass” value (late watergrass [3]) was 3 (Herbicidal rate of 40% or more and less than 70%), the “Herbicidal effect on B: Japanese bulrush (grade 0-5)” value (Japanese bulrush [4]) was 5 (Herbicidal rate of 90% or more (almost completely withered)) and the “Herbicidal effect on C: oval-leafed pondweed (grade 0-5)” value (oval-leafed pondweed [5]) was 5 (Herbicidal rate of 90% or more (almost completely withered)). The “herbicidal effect on H (barnyard grass), rating 0-5” value (barnyard grass) was 5 (Herbicidal rate of 90% or more (almost completely withered)), the “herbicidal effect rating, C: oval-leafed pondweed” value (oval-leafed pondweed [6]) was 4 (Herbicidal rate of 70% or more and less than 90%) and the “herbicidal effect on E (rice flat sedge), rating 0-5” value (rice flat sedge) was 4 (Herbicidal rate of 70% or more and less than 90%).
